Tests used:
[1] = target: T1, N-acetyllactosaminide alpha-1,3-galactosyltransferase (Sus scrofa, UniProt P50127); assay: Compound was tested for the inhibition porcine alpha -1,3 -galactosyl transferase (alpha-1,3-GalT); No inhibition
[2] = target: T2, Beta-1,4-galactosyltransferase 1 (Bos taurus, UniProt P08037); assay: Compound was tested for the inhibition recombinant bovine beta -1,4 -galactosyl transferase (beta-1,4-GalT)
T2 sequence (P08037 whole entry): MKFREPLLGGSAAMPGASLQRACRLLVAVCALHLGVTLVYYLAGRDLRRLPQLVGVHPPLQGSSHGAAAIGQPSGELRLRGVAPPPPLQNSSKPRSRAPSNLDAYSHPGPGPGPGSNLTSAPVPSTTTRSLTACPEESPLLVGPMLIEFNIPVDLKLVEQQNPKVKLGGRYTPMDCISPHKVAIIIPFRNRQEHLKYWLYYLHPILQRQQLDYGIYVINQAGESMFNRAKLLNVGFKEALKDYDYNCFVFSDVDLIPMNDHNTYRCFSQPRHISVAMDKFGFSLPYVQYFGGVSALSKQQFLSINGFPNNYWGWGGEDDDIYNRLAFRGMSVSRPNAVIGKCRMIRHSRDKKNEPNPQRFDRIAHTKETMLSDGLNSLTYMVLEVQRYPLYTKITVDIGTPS

[3] = target: T2, Beta-1,4-galactosyltransferase 1; assay: Compound was tested for the inhibition recombinant bovine beta -1,4 -galactosyl transferase (beta-1,4-GalT); No inhibition
[4] = target: T1, N-acetyllactosaminide alpha-1,3-galactosyltransferase; assay: Compound was tested for the inhibition porcine alpha -1,3 -galactosyl transferase (alpha-1,3-GalT)
[5] = target: T1, N-acetyllactosaminide alpha-1,3-galactosyltransferase; assay: Compound was tested for the inhibition porcine alpha -1,3 -galactosyl transferase (alpha-1,3-GalT) at 0.2 mM concentration

T1 sequence (P50127 whole entry): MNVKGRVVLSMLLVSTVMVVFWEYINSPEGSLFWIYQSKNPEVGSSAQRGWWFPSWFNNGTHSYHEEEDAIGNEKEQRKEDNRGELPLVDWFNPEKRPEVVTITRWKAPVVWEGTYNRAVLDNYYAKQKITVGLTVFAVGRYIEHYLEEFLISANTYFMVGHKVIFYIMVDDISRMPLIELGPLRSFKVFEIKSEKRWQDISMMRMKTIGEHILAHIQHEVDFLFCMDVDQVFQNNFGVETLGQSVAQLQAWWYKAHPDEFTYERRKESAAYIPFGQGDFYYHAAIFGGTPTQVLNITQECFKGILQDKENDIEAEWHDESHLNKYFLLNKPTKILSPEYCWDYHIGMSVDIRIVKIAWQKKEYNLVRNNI

Q: For `CC(=O)NC1C(Oc2ccc3cc(Br)ccc3c2)OC(CO)C(O)C1O` (stereo unspecified), which Ki [1] is on record?
A: The Ki was “Not Active”.

Q: What about the Ki [2] of the same compound?
A: Its Ki is 7.6 µM.

Q: `CC(=O)NC1C(Oc2ccc3ccccc3c2)OC(CO)C(O)C1O` (stereo unspecified) was tested. Which Ki [1] did it give?
A: Its Ki is “Not Active”.

Q: What about the Ki [2] of the same compound?
A: Its Ki is 9.5 µM.

Q: `CC(=O)NC1C(Oc2ccccc2)OC(CO)C(O)C1O` (stereo unspecified) was tested. Which Ki [3] did it give?
A: Its Ki is “Not Active”.

Q: For `COC(=O)CCCCCOC1OC(CO)C(O)C(O)C1NC(C)=O` (stereo unspecified), which Ki [3] is on record?
A: The Ki was “Not Active”.

Q: `CC(=O)NC1C(Oc2cccc3ccccc23)OC(CO)C(O)C1O` (stereo unspecified) was tested. Which Ki [1] did it give?
A: Its Ki is “Not Active”.

Q: And the Ki [2]?
A: The Ki was 22 µM.

Q: For `CC(=O)NC1C(OCc2ccccc2)OC(CO)C(N)C1O` (stereo unspecified), which Ki [2] is on record?
A: The Ki was 850 µM.

Q: How did the Ki [3] turn out when `OC[C@@H]1O[C@@H](Oc2ccc3cc(Br)ccc3c2)[C@@H](O)[C@@H](O)[C@H]1O` was run?
A: The Ki was “Not Active”.

Q: With `CO[C@@H]1O[C@@H](CO)[C@H](O)[C@H](O[C@@H]2O[C@@H](CS)[C@@H](O)[C@H](O)[C@@H]2NC(C)=O)[C@@H]1O` as the compound, how does the Ki [2] read?
A: Its Ki is 1000 µM.

Q: How did the Ki [4] turn out when `CC(=O)N[C@@H]1[C@H](Oc2ccc3cc(Br)ccc3c2)O[C@@H](CO)[C@@H](O[C@@H]2O[C@@H](CO)[C@H](O)[C@H](O)[C@@H]2O)[C@@H]1O` was run?
A: Its Ki is 9.2 µM.

Q: And the Ki [3]?
A: The Ki was “Not Active”.

Q: What does the source list for `COc1ccc2cc(OC3OC(CO)C(O)C(O)C3NC(C)=O)ccc2c1` (stereo unspecified)?
A: Ki [1]: Not Active; Ki [2]: 3.5 µM

Q: How did the Ki [5] turn out when `COC1OC(CO)C(OC2OC(CO)C(O)C(N)C2O)C(O)C1NC(C)=O` (stereo unspecified) was run?
A: The Ki was 104 µM.

Source: ChEMBL document CHEMBL1130691, “Acceptor substrate-based selective inhibition of galactosyltransferases” (Bioorg Med Chem Lett, 1998)
